{
  "source": "paper PMC12332667",
  "about": "“Role of Structural Modifications in Peptidomimetic Compounds as Potential Antimicrobial Agents against Staphylococcus aureus and Streptococcus pyogenes: Balancing Bioavailability, Safety, and Antimicrobial Activity” (ACS Omega, 2025)",
  "key": {"S. schleiferi c.i.": {"test_system": "S. schleiferi c.i.", "test": "MIC/MBC broth microdilution, S. schleiferi", "format": "cell-based, Staphylococcus schleiferi", "method": "(§1) S. aureus (ATCC 29213),S. pyogenes (ATCC 19615),Streptococcus agalactiae (ATCC 27956),Escherichia coli (ATCC 25922),Proteus vulgaris (ATCC 6896),K. pneumoniae (ATCC 700603) andP. aeruginosa (ATCC 10145) reference strains, as well asStaphylococcus cohnii, Enterococcus faecalis, Staphylococcus schleiferi, Staphylococcus intermedius and Streptococcus mutans clinical isolates, were used to test the antibacterial activity of the peptidomimetics. Bacteria were aerobically cultured for 18 h at 37 °C in plates with sterilized brain heart infusion (BHI) broth (Sigma-Aldrich, USA) media mixed with bacteriological agar (Sigma-Aldrich, USA) using the streak plate method. After 18 h, BHI broth was inoculated to 0.5 on the McFarland scale and diluted to approximately 10^5 CFU/mL. To achieve a final stock concentration of 1024 μg/mL, the peptidomimetics were dissolved in sterile water, and 5–10% of absolute ethanol or dimethyl sulfoxide (DMSO) was added. The antibacterial activities were determined by using the standard broth microdilution method of the National Committee for Clinical Laboratory Standards. The process involved adding serially diluted peptidomimetics to consecutive wells of a 96-well microtiter plate (Brand, Germany) holding media with microorganisms. The inoculated plates treated with peptides were then placed in an incubator at 37 °C for 18 h. The MIC value was determined as the lowest concentration of peptidomimetic at which there was no obvious growth (equal or more than 90% of the untreated sample). […] The lowest concentration yielding growth in no more than 3 colonies, corresponding to at least a 99.9% kill rate, was taken as MBC. Each biological replicate included control wells with the addition of water, DMSO, and ethanol as respective solvent controls. All experiments were conducted with consistent adherence to growth and sterility controls and were performed at least in technical triplicate with three biological repeats."}, "S. aureus ATCC 43300": {"test_system": "S. aureus ATCC 43300", "test": "MIC/MBC broth microdilution, S. aureus", "format": "cell-based, Staphylococcus aureus", "settings": "S. aureus"}, "S. cohnii c.i.": {"test_system": "S. cohnii c.i.", "test": "MIC/MBC broth microdilution, S. cohnii", "format": "cell-based, Staphylococcus cohnii", "method": "as §1"}, "S. intemrdius c.i.": {"test_system": "S. intemrdius c.i.", "test": "MIC/MBC broth microdilution, S. intermedius", "format": "cell-based, Staphylococcus intermedius", "method": "as §1"}, "S. mutans c.i.": {"test_system": "S. mutans c.i.", "test": "MIC/MBC broth microdilution, S. mutans", "format": "cell-based, Streptococcus mutans", "method": "as §1"}, "E. coli ATCC 25922": {"test_system": "E. coli ATCC 25922", "test": "MIC/MBC broth microdilution, E. coli", "format": "cell-based, Escherichia coli", "method": "as §1"}, "S. pyogenes ATCC 19615": {"test_system": "S. pyogenes ATCC 19615", "test": "MIC/MBC broth microdilution, S. pyogenes", "format": "cell-based, Streptococcus pyogenes", "settings": "S. pyogenes", "method": "as §1"}, "fibroblasts (46BR.1N)": {"test_system": "fibroblasts (46BR.1N)", "test": "LDH cytotoxicity test, fibroblasts", "format": "cell-based", "settings": "48 h, 50, 100 and 150 μg/mL, vs 1% Triton X-100", "method": "(§2) In our study, we used two distinct cell types: immortalized human HaCaT keratinocytes (DKFZ, Heidelberg, Germany) and a human dermal fibroblast cell line (46BR.1N). […] Cultures were maintained in a humidified atmosphere with 5% CO2 at 37 °C in 25 cm^2 culture flasks with the medium replenished every 2 days. The condition of the cells was monitored using optical microscopy.\n(§3) Cell death in immortalized human keratinocytes (HaCaT) and fibroblasts (46BR.1N) was measured by quantifying the lactate dehydrogenase (LDH) activity using a commercial kit (Roche, Switzerland). Cells were seeded in 96-well plates at a density of 5000 cells per well in DMEM high glucose medium supplemented with 10% FBS. After 24 h of incubation, the medium was replaced with serum-free medium containing various concentrations of peptidomimetics (50, 100, and 150 μg/mL). After 48 h, supernatants were collected for LDH analysis. Plate readings were taken spectrophotometrically using a 450 nm wavelength. Cell death measurements were normalized to an untreated control (0%), with 1% Triton X-100 detergent used as a positive control to induce maximum LDH release, indicating maximal cytotoxicity. Statistical significance was determined with a Mann–Whitney U test with a statistical significance p ≤ 0.05. Analysis was performed with Statistica software (Krakow, Poland) and graphs were prepared in GraphPad Prism (Boston, USA)."}, "[1]": {"test_system": "immortalized human keratinocytes (HaCaT)", "test": "LDH cytotoxicity test, keratinocytes", "format": "cell-based", "settings": "48 h, 50, 100 and 150 μg/mL, vs 1% Triton X-100", "method": "as §2, §3"}, "P. aeruginosa ATCC 10145": {"test_system": "P. aeruginosa ATCC 10145", "test": "MIC/MBC broth microdilution, P. aeruginosa", "format": "cell-based", "method": "as §1"}, "P. vulgaris ATCC 6896": {"test_system": "P. vulgaris ATCC 6896", "test": "MIC/MBC broth microdilution, P. vulgaris", "format": "cell-based, Proteus vulgaris", "method": "as §1"}, "E. faecalis c.i.": {"test_system": "E. faecalis c.i.", "test": "MIC/MBC broth microdilution, E. faecalis", "format": "cell-based, Enterococcus faecalis", "method": "as §1"}, "S. agalactiae ATCC 27956": {"test_system": "S. agalactiae ATCC 27956", "test": "MIC/MBC broth microdilution, S. agalactiae", "format": "cell-based, Streptococcus agalactiae", "settings": "S. agalactiae", "method": "as §1"}, "[2]": {"test_system": "K. pneumoniae ATCC 700603", "test": "MIC/MBC broth microdilution, K. pneumoniae", "format": "cell-based", "method": "as §1"}, "[3]": {"test_system": "immortalized human HaCaT keratinocytes", "test": "XTT cell proliferation assay, keratinocytes", "format": "cell-based", "settings": "XTT", "method": "(§4) In our study, we used two distinct cell types: immortalized human HaCaT keratinocytes (DKFZ, Heidelberg, Germany) and a human dermal fibroblast cell line (46BR.1N). […] Cultures were maintained in a humidified atmosphere with 5% CO2 at 37 °C in 25 cm^2 culture flasks with the medium replenished every 2 days. The condition of the cells was monitored using optical microscopy. […] After 24 h of incubation, the medium was replaced with serum-free HG-DMEM containing appropriate concentrations of peptidomimetics. All solutions used in the experiments were prepared with double-distilled water or with the addition of ethanol under sterile conditions to ensure compatibility with the conditions of the bacteriological assay. For 72 h of incubation, half of the medium was replaced with fresh medium after 48 h, and cells were stimulated with peptides for a second time. The XTT cell proliferation assay was then performed according to the manufacturer’s instructions (Roche, Switzerland). Cells were treated with the peptides for either 48 or 72 h, followed by the addition of XTT reagent, and the plates were then incubated at 37 °C in a 5% CO2 environment for 4 h. Plate readings were taken using a standard plate reader at a wavelength of 490 nm (OD = 490 nm). […] Statistical significance was determined with a Mann–Whitney U test with statistical significance p ≤ 0.05. Analysis was performed with Statistica software, and graphs were prepared in GraphPad Prism."}, "[4]": {"test_system": "human dermal fibroblast cell line (46BR.1N)", "test": "XTT cell proliferation assay, fibroblasts", "format": "cell-based", "settings": "XTT", "method": "as §4"}},
  "data": [
    {"smiles": "CC(C)C[C@H](NC(=O)[C@H](CCCCNC(=N)N)NC(=O)OCc1ccccc1)C(=O)N[C@H](CNC(=O)/C=C/c1ccccc1)C(C)C", "note": "[Compound A-134]", "values": [
      {"measurement": "MIC", "setting": "S. schleiferi c.i.; water additive DMSO", "result": "> 512", "unit": "µg/mL"},
      {"measurement": "MIC", "setting": "S. schleiferi c.i.; water additive EtOH", "result": "> 512", "unit": "µg/mL"},
      {"measurement": "MIC", "setting": "S. aureus ATCC 43300; H2O", "result": 32, "unit": "µg/mL"},
      {"measurement": "MIC", "setting": "S. aureus ATCC 43300; water additive EtOH", "result": 32, "unit": "µg/mL"},
      {"measurement": "MBC", "setting": "S. cohnii c.i.; water additive DMSO", "result": 32, "unit": "µg/mL"},
      {"measurement": "MIC", "setting": "S. cohnii c.i.; water additive DMSO", "result": 32, "unit": "µg/mL"},
      {"measurement": "MBC", "setting": "S. cohnii c.i.; water additive EtOH", "result": 32, "unit": "µg/mL"},
      {"measurement": "MIC", "setting": "S. cohnii c.i.; water additive EtOH", "result": 32, "unit": "µg/mL"},
      {"measurement": "MBC", "setting": "S. intemrdius c.i.; water additive DMSO", "result": 32, "unit": "µg/mL"},
      {"measurement": "MIC", "setting": "S. intemrdius c.i.; water additive DMSO", "result": 32, "unit": "µg/mL"},
      {"measurement": "MBC", "setting": "S. intemrdius c.i.; water additive EtOH", "result": 16, "unit": "µg/mL"},
      {"measurement": "MIC", "setting": "S. intemrdius c.i.; water additive EtOH", "result": 16, "unit": "µg/mL"},
      {"measurement": "MBC", "setting": "S. mutans c.i.; water additive DMSO", "result": "> 512", "unit": "µg/mL"},
      {"measurement": "MIC", "setting": "S. mutans c.i.; water additive DMSO", "result": 512, "unit": "µg/mL"},
      {"measurement": "MIC", "setting": "S. mutans c.i.; water additive EtOH", "result": "> 512", "unit": "µg/mL"},
      {"measurement": "MIC", "setting": "E. coli ATCC 25922; water additive DMSO", "result": "> 512", "unit": "µg/mL"},
      {"measurement": "MIC", "setting": "E. coli ATCC 25922; water additive EtOH", "result": "> 512", "unit": "µg/mL"},
      {"measurement": "MIC", "setting": "S. pyogenes ATCC 19615; H2O", "result": 32, "unit": "µg/mL"},
      {"measurement": "MBC", "setting": "S. pyogenes ATCC 19615; water additive DMSO", "result": 16, "unit": "µg/mL"},
      {"measurement": "MIC", "setting": "S. pyogenes ATCC 19615; water additive DMSO", "result": 32, "unit": "µg/mL"},
      {"measurement": "MBC", "setting": "S. pyogenes ATCC 19615; water additive EtOH", "result": 32, "unit": "µg/mL"},
      {"measurement": "MIC", "setting": "S. pyogenes ATCC 19615; water additive EtOH", "result": 16, "unit": "µg/mL"},
      {"measurement": "cytotoxicity (LDH)", "setting": "fibroblasts (46BR.1N)", "result": "≤ 50", "unit": "%"},
      {"measurement": "cytotoxicity (LDH)", "setting": "[1]", "result": "≤ 50", "unit": "%"},
      {"measurement": "MIC", "setting": "P. aeruginosa ATCC 10145; water additive DMSO", "result": "> 512", "unit": "µg/mL"},
      {"measurement": "MIC", "setting": "P. aeruginosa ATCC 10145; water additive EtOH", "result": "> 512", "unit": "µg/mL"},
      {"measurement": "MIC", "setting": "P. vulgaris ATCC 6896; water additive DMSO", "result": "> 512", "unit": "µg/mL"},
      {"measurement": "MIC", "setting": "P. vulgaris ATCC 6896; water additive EtOH", "result": "> 512", "unit": "µg/mL"},
      {"measurement": "MBC", "setting": "E. faecalis c.i.; water additive DMSO", "result": 512, "unit": "µg/mL"},
      {"measurement": "MIC", "setting": "E. faecalis c.i.; water additive DMSO", "result": 256, "unit": "µg/mL"},
      {"measurement": "MBC", "setting": "E. faecalis c.i.; water additive EtOH", "result": 512, "unit": "µg/mL"},
      {"measurement": "MIC", "setting": "E. faecalis c.i.; water additive EtOH", "result": 512, "unit": "µg/mL"},
      {"measurement": "MIC", "setting": "S. agalactiae ATCC 27956; water additive DMSO", "result": 32, "unit": "µg/mL"},
      {"measurement": "MIC", "setting": "S. agalactiae ATCC 27956; water additive EtOH", "result": 32, "unit": "µg/mL"},
      {"measurement": "MIC", "setting": "[2]; water additive DMSO", "result": "> 512", "unit": "µg/mL"},
      {"measurement": "MIC", "setting": "[2]; water additive EtOH", "result": "> 512", "unit": "µg/mL"},
      {"measurement": "proliferation relative to control at 50 μg/mL", "setting": "[3]; 50 μg/mL", "result": "approximately 75%"},
      {"measurement": "effect on proliferation, in words", "setting": "[3]; 48 and 72 h, 0.01–150 μg/mL", "result": "pro-proliferating effect at lower concentrations followed by an antiproliferative effect at higher concentrations"},
      {"measurement": "proliferation relative to control at 50 μg/mL", "setting": "[4]; 50 μg/mL", "result": "approximately 75%"},
      {"measurement": "effect on proliferation, in words", "setting": "[4]; 48 and 72 h, 0.01–150 μg/mL", "result": "pro-proliferating effect at lower concentrations followed by an antiproliferative effect at higher concentrations"}
    ]}
  ]
}
